Here are results for 14 compounds from PubChem BioAssay AID220 (DTP/NCI, 2004).

Records with an inconclusive call do not appear.

This assay deals with CD8F1 mice, subcutaneous mammary adenocarcinoma, T/C%. As to the kind of experiment: NCI In Vivo Anticancer Drug Screen. Data for tumor model Mammary Adenocarcinoma CD8F1 (subcutaneous) in CD8F1. Particulars: higher = larger tumour. The essentials:
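Ratio of treated to vehicle-control outcome, based on either survival or tumor size, in mice bearing transplantable tumors given the test compound.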

Where [1] appears, read: endpoint: median tumor weight (est.), dose: 12.5 mg/kg/injection, schedule: Q07DX005 (ip), vehicle: saline.
Setting [2] is: endpoint: median tumor weight (est.), dose: 25.0 mg/kg/injection, schedule: Q07DX005 (ip), vehicle: saline.
The mark [3] stands for this setting: endpoint: median tumor weight (est.), dose: 50.0 mg/kg/injection, schedule: Q07DX005 (ip), vehicle: saline.
[4] abbreviates: endpoint: median tumor weight (est.), dose: 100.0 mg/kg/injection, schedule: Q07DX005 (ip), vehicle: suspension in saline.
The mark [5] stands for this setting: endpoint: median tumor weight (est.), dose: 100.0 mg/kg/injection, schedule: Q07DX005 (ip), vehicle: saline.
The mark [6] stands for this setting: endpoint: median tumor weight (est.), dose: 200.0 mg/kg/injection, schedule: Q07DX005 (ip), vehicle: saline.

In the case of `CCC12C[N+]3([O-])CCc4c([nH]c5ccccc45)C(C(=O)OC)(c4cc5c(cc4OC)N(C)C4C(O)(C(=O)OC)C(OC(C)=O)C6(CC)C=CCN7CCC54C76)CC(C3)C1O2` (stereo not given), the T/C is 199 % of control (endpoint: median tumor weight change, dose: 6.25 mg/kg/injection, schedule: Q01DX001 (ip), vehicle: water); 73 % of control (endpoint: median tumor weight change, dose: 12.5 mg/kg/injection, schedule: Q01DX001 (ip), vehicle: water); 87 % of control (endpoint: median tumor weight change, dose: 25.0 mg/kg/injection, schedule: Q01DX001 (ip), vehicle: water); 92 % of control (endpoint: median tumor weight change, dose: 50.0 mg/kg/injection, schedule: Q01DX001 (ip), vehicle: water); 81 % of control (endpoint: median tumor weight change, dose: 100.0 mg/kg/injection, schedule: Q01DX001 (ip), vehicle: water).

Take `COc1cc2c(cc1O)N=C[C@@H]1CCC(O)N1C2=O` (mixture of isomers): the T/C is 103 % of control (endpoint: median tumor weight (est.), dose: 2.0 mg/kg/injection, schedule: Q07DX005 (ip), vehicle: saline); 79 % of control (endpoint: median tumor weight (est.), dose: 4.0 mg/kg/injection, schedule: Q07DX005 (ip), vehicle: saline); 160 % of control (endpoint: median tumor weight (est.), dose: 8.0 mg/kg/injection, schedule: Q07DX005 (ip), vehicle: saline).

For the compound `COC1=NCN=C2SC=C(N)N=C12`, the T/C is 208 % of control (endpoint: median tumor weight (est.), dose: 6.25 mg/kg/injection, schedule: Q07DX005 (ip), vehicle: saline); 76 % of control under setting [1]; 107 % of control under setting [2]; 156 % of control under setting [3].

As to `CC(C)CCC(=O)c1ccoc1`, the T/C by setting is: (endpoint: median tumor weight change, dose: 0.31 mg/kg/injection, schedule: Q03HX003 (ip), vehicle: saline with Tween-80) 90 % of control; (endpoint: median tumor weight change, dose: 0.62 mg/kg/injection, schedule: Q03HX003 (ip), vehicle: saline with Tween-80) 102 % of control; (endpoint: median tumor weight change, dose: 1.25 mg/kg/injection, schedule: Q03HX003 (ip), vehicle: saline with Tween-80) 103 % of control.

On to `CC1CCC2N(C1)CC1C3CC4C(CC(=O)C5CC(O)CCC54C)C3CCC1C2(C)O` (stereo not given), for which the T/C runs as follows: (endpoint: mean tumor weight, dose: 2.5 mg/kg/injection, schedule: Q07DX006 (ip), vehicle: saline with Tween-80) 87 % of control; (endpoint: mean tumor weight, dose: 5.0 mg/kg/injection, schedule: Q07DX006 (ip), vehicle: saline with Tween-80) 81 % of control; (endpoint: mean tumor weight, dose: 10.0 mg/kg/injection, schedule: Q07DX006 (ip), vehicle: saline with Tween-80) 90 % of control; (endpoint: mean tumor weight, dose: 20.0 mg/kg/injection, schedule: Q07DX006 (ip), vehicle: saline with Tween-80) 89 % of control.

With `COc1ccc(Cl)[n+]([O-])n1`, the T/C (endpoint: median tumor weight change, dose: 125.0 mg/kg/injection, schedule: Q01DX001 (ip), vehicle: Klucel (hydroxypropylcellulose) (HPC)) was 79 % of control.

On to `COc1cc2cc3c4cc(OC)c(OC)cc4cc[n+]3c(C)c2cc1OC` (tested in a mixture with another compound), for which, under setting [4], the T/C is 97 % of control.

In the case of `CCN1C=C/C(=C\C=C/c2cc[n+](CC)c3ccccc23)c2ccccc21`, the T/C by setting is: (endpoint: median tumor weight (est.), dose: 0.06 mg/kg/injection, schedule: Q07DX005 (ip), vehicle: saline) 123 % of control; (endpoint: median tumor weight (est.), dose: 0.06 mg/kg/injection, schedule: Q07DX005 (ip), vehicle: suspension in saline) 104 % of control; (endpoint: median tumor weight (est.), dose: 0.12 mg/kg/injection, schedule: Q07DX005 (ip), vehicle: saline) 88 % of control; (endpoint: median tumor weight (est.), dose: 0.12 mg/kg/injection, schedule: Q07DX005 (ip), vehicle: suspension in saline) 83 % of control; (endpoint: median tumor weight (est.), dose: 0.25 mg/kg/injection, schedule: Q07DX005 (ip), vehicle: saline) 150 % of control; (endpoint: median tumor weight (est.), dose: 0.25 mg/kg/injection, schedule: Q07DX005 (ip), vehicle: suspension in saline) 119 % of control. The T/C (endpoint: median tumor weight (est.), dose: 0.5 mg/kg/injection, schedule: Q07DX005 (ip), vehicle: saline) is 109 % of control; the T/C (endpoint: median tumor weight (est.), dose: 1.0 mg/kg/injection, schedule: Q07DX005 (ip), vehicle: saline) is 101 % of control; the T/C (endpoint: median tumor weight (est.), dose: 1.0 mg/kg/injection, schedule: Q07DX005 (ip), vehicle: suspension in saline) was 75 % of control.

`NC(=S)N/N=C/c1ccc(O)cn1`: the T/C is 101 % of control (endpoint: mean tumor weight, dose: 12.5 mg/kg/injection, schedule: Q07DX005 (ip), vehicle: saline with Tween-80); 75 % of control (endpoint: mean tumor weight, dose: 25.0 mg/kg/injection, schedule: Q07DX005 (ip), vehicle: saline with Tween-80); 58 % of control (endpoint: mean tumor weight, dose: 50.0 mg/kg/injection, schedule: Q07DX005 (ip), vehicle: saline with Tween-80); 49 % of control (endpoint: mean tumor weight, dose: 100.0 mg/kg/injection, schedule: Q07DX005 (ip), vehicle: saline with Tween-80); 63 % of control (endpoint: mean tumor weight, dose: 200.0 mg/kg/injection, schedule: Q07DX005 (ip), vehicle: saline with Tween-80); 106 % of control (endpoint: median tumor weight (est.), dose: 12.5 mg/kg/injection, schedule: Q07DX005 (ip), vehicle: saline with Tween-80). Moreover, the T/C reads like this: under setting [2], 59 % of control; (endpoint: median tumor weight (est.), dose: 50.0 mg/kg/injection, schedule: Q07DX005 (ip), vehicle: saline with Tween-80) 85 % of control; under setting [3], 76 % of control; (endpoint: median tumor weight (est.), dose: 100.0 mg/kg/injection, schedule: Q07DX005 (ip), vehicle: saline with Tween-80) 124 % of control; under setting [5], 105 % of control; (endpoint: median tumor weight (est.), dose: 200.0 mg/kg/injection, schedule: Q07DX005 (ip), vehicle: saline with Tween-80) 60 % of control. Moreover, the T/C under setting [6] was 64 % of control; the T/C (endpoint: median tumor weight (est.), dose: 400.0 mg/kg/injection, schedule: Q07DX005 (ip), vehicle: saline with Tween-80) is 52 % of control; the T/C (endpoint: median tumor weight (est.), dose: 400.0 mg/kg/injection, schedule: Q07DX005 (ip), vehicle: saline) was 44 % of control; the T/C (endpoint: median tumor weight (est.), dose: 800.0 mg/kg/injection, schedule: Q07DX005 (ip), vehicle: saline) is 2 % of control.

In the case of `Nc1cc2[nH]cnc2c(=O)[nH]1`, the T/C runs as follows: (endpoint: mean tumor weight, dose: 20.0 mg/kg/injection, schedule: Q07DX006 (ip), vehicle: saline) 83 % of control; (endpoint: mean tumor weight, dose: 40.0 mg/kg/injection, schedule: Q07DX006 (ip), vehicle: saline) 50 % of control; (endpoint: mean tumor weight, dose: 80.0 mg/kg/injection, schedule: Q07DX006 (ip), vehicle: saline) 76 % of control; (endpoint: median tumor weight (est.), dose: 12.5 mg/kg/injection, schedule: Q07DX005 (ip), vehicle: suspension in saline) 56 % of control; (endpoint: median tumor weight (est.), dose: 25.0 mg/kg/injection, schedule: Q07DX005 (ip), vehicle: suspension in saline) 79 % of control; (endpoint: median tumor weight (est.), dose: 50.0 mg/kg/injection, schedule: Q07DX005 (ip), vehicle: suspension in saline) 56 % of control. For the same compound, the T/C was 80 % of control under setting [4] and 64 % of control (endpoint: median tumor weight (est.), dose: 200.0 mg/kg/injection, schedule: Q07DX005 (ip), vehicle: suspension in saline).

Regarding `CCC1=C[C@H]2CN(CCc3c([nH]c4ccccc34)[C@@](C(=O)OC)(c3cc4c(cc3OC)N(C)[C@H]3[C@@](O)(C(=O)OC)[C@H](OC(C)=O)[C@]5(CC)C=CCN6CC[C@]43[C@@H]65)C2)C1`, the T/C is 100 % of control (endpoint: median tumor weight change, dose: 4.0 mg/kg/injection, schedule: Q01DX001 (ip), vehicle: water) and 36 % of control (endpoint: median tumor weight change, dose: 8.0 mg/kg/injection, schedule: Q01DX001 (ip), vehicle: water).

On to `CCOC(=O)C1=C(C#N)C2(CCC(OCc3ccccc3)CC2)C(=O)O1` (stereo not given), for which the T/C was 66 % of control (endpoint: median tumor weight change, dose: 125.0 mg/kg/injection, schedule: Q01DX001 (ip), vehicle: suspension in saline); 63 % of control (endpoint: median tumor weight change, dose: 250.0 mg/kg/injection, schedule: Q01DX001 (ip), vehicle: suspension in saline); 50 % of control (endpoint: median tumor weight change, dose: 500.0 mg/kg/injection, schedule: Q01DX001 (ip), vehicle: suspension in saline); 24 % of control (endpoint: median tumor weight change, dose: 1000.0 mg/kg/injection, schedule: Q01DX001 (ip), vehicle: suspension in saline).

Take `CN(C(=S)S(=O)(=O)C12CC3CC(CC(C3)C1)C2)c1ccccc1`: the T/C runs as follows: (endpoint: median tumor weight (est.), dose: 6.25 mg/kg/injection, schedule: Q07DX005 (ip), vehicle: Klucel (hydroxypropylcellulose) (HPC)) 66 % of control; (endpoint: median tumor weight (est.), dose: 12.5 mg/kg/injection, schedule: Q07DX005 (ip), vehicle: Klucel (hydroxypropylcellulose) (HPC)) 84 % of control; (endpoint: median tumor weight (est.), dose: 25.0 mg/kg/injection, schedule: Q07DX005 (ip), vehicle: Klucel (hydroxypropylcellulose) (HPC)) 81 % of control; (endpoint: median tumor weight (est.), dose: 50.0 mg/kg/injection, schedule: Q07DX005 (ip), vehicle: Klucel (hydroxypropylcellulose) (HPC)) 77 % of control; (endpoint: median tumor weight (est.), dose: 100.0 mg/kg/injection, schedule: Q07DX005 (ip), vehicle: Klucel (hydroxypropylcellulose) (HPC)) 61 % of control.

On to `COc1cc2cc3cc4cc(OC)c(OC)cc4c(C)[n+]3cc2cc1OC` (tested in a mixture with another compound), for which the T/C runs as follows: under setting [1], 68 % of control; under setting [2], 88 % of control; under setting [3], 82 % of control; under setting [5], 90 % of control; under setting [6], 39 % of control.
